Laboratory results taken from patent US6403111B1, “Method for preparing aqueous phytosphingosine solution” (Doosan Corporation, priority 2000, dated 2002).

How the values were obtained:
[1] = Solubility of phytosphingosine in solvents; format: physicochemical; conditions: solvent: mixture of water, lactic acid and a willow bark extract
[2] = cited from earlier work

Amount solubilized to give a completely clear solution [1]: 5-10 weight %
SMILES: CCCCCCCCCCCCCC[C@@H](O)[C@@H](O)[C@@H](N)CO [Phytosphingosine, phytosphingosine]
Solubility in isocetyl alcohol ([2]; isocetyl alcohol): 1 wt %
Solubility in water ([2]; water): not soluble in water at all
